Data taken from patent US11324795B2, “Composition comprising Hordeum vulgare extract for preventing or treating short stature” (UNIVERSITY-INDUSTRY COOPERATION GROUP OF KYUNG HEE …, priority 2013, dated 2022).

Test system: Sprague-Dawley female rats
Assay: Evaluation of longitudinal bone growth effect, tetracycline staining method
Type: in vivo, rat
Method: As experimental animals, four-week-old Sprague-Dawley female rats (Samtako, Korea) weighing about 100 g were purchased and cared for so as to be acclimatized to the experimental environment while supplying sufficient feed and water. After about 1 week for the acclimatization period, animal testing was performed.
Two days after administration, 20 mg/kg of tetracycline hydrochloride (Sigma T7660) was injected intraperitoneally to all test groups. Two days thereafter, the rats were sacrificed via cervical dislocation, after which the left and right tibiae were removed, fixed in a fixing solution at 4° C. for 3 days, allowed to stand in 50 mM EDTA for 1 day, demineralized, and immersed in 30% sucrose overnight to protect freezing. The bone tissue thus dehydrated was frozen, and cut into 40 μm sections using a sliding microtome (HM440E, Zeiss, Germany), thus collecting sagittal sections of the proximal part of the tibia. To measure the bone growth, each sagittal section of the proximal part of the tibia, 40 μm thick, was placed on a slide glass, dried, and then observed under UV light at a wavelength of 400 nm using a fluorescence microscope (FIG. 1). Using image analysis software ImageJ (NIH, USA), the length between the fluorescence bands formed by the deposition of tetracycline in the growth plate and the bone tissue was measured, and Student's t-test and ANOVA test for comparison with a control group were performed in order to determine the growth effect.
The Hordeum vulgare extract prepared in Example 1 was administered after having been dissolved in a concentration of 30 mg/kg in type II distilled water in a volume of 1.0 ml per 100 g of rat weight, and as a control group, the same volume of type II distilled water was administered. The Hordeum vulgare extract was orally administered two times a day for a total of four days, starting from 2 days before the administration of tetracycline until the test termination day. […]

Positive control group: recombinant human growth hormone (rhGH; LG Lifescience, Eutropin®)
Longitudinal bone growth rate (%) (Table 1, extract 30 mg/kg (p.o.), positive control 20 μg/kg (s.c.)): 6.6%
longitudinal bone growth rate (proximal tibia, tetracycline band length, 4 days dosing, extract 30 mg/kg p.o. two times a day, rhGH 20 μg/kg s.c. once a day): 360.1±35.8 μm/day
longitudinal bone growth rate, % higher than normal control group (vs 337.8±30.0 μm/day in normal control group, extract 30 mg/kg p.o. (p<0.001), rhGH 20 μg/kg s.c. (not significant)): 6.6%
